Experiment: Triboelectrification in a cyclone separator (specific charge, mass transport, adhesion)
Assay type: physicochemical
Details: for specific charge: untreated micronized drug, stainless steel cyclone, FIG. 1 / FIG. 3
Excerpt: In the processing of micronized or microfine active substances for DPI, it is common to subject the powder to a sieving process in order to remove large agglomerates prior to mixing with the carrier particles used in the DPI formulation. […] The experimental method for electrostatic charge determinations that was applied is outlined in more detail below.
Electrostatic charge of powder samples was investigated using a cyclone apparatus linked to a Faraday well and force compensation load cell to measure charge and mass simultaneously. 1 g samples of powder were transported through the apparatus using dry compressed air (rh<10%) at 8 m s^−1 for triboelectrification against a stainless steel surface.
The charge Q (nC) and mass M (g) values were used to calculate the specific charge Q/M (nC g^−1) at the completion of each experimental run. The results are mean values with coefficient of variation values for 5 replicates. The mass of material entering the Faraday well was used to quantify the mass transport through the apparatus and this was used to assess the flow and adhesion characteristics of the powder. In addition, the amount of material adhered to the cyclone wall was estimated visually and rated on a scale from 0 (no adhesion) to 3 (extensive adhesion).
Approximately 10 g of drug powder samples were placed in a 60M (250 μm) sieve and agitated using a sieve shaker (Glen Creston, 47-300) with an oscillation amplitude regulator at setting 20 for 20 minutes. Sieved powder samples were stored in glass jars and then kept in a desiccator for a week prior to charge investigations in the cyclone.

[1] = sieved samples, tiotropium treated with sorbitan derivative at 600 mg l^−1, or untreated, cyclone

Structure (SMILES)	specific charge (sieved)	specific charge (unsieved)	Mean charge (cv %) [1]	Mean mass transfer (cv %) [1]
CC(Cc1ccc(O)cc1)NCC(O)c1cc(O)cc(O)c1 (stereo not drawn) [fenoterol, Fenoterol]	−92 nC g^−1	−40 nC g^−1	–	–
C[N+]1(C)[C@@H]2C[C@@H](OC(=O)C(O)(c3cccs3)c3cccs3)C[C@H]1[C@@H]1O[C@@H]12 [tiotropium, Tiotropium]	+201 nC g^−1	+52 nC g^−1	+201 (3.2) nC g^−1	2.5 (8.0) %

Source: patent US20080057003A1, “Powder inhaler formulations” (priority 2001, published 2008)
